The subject of data set [1] is Saccharomyces cerevisiae BY4743. Kind of data set: Glucose utilization rate in high cell density culture in YPD. It is filed as cell-based. As for the experimental part:
Saccharomyces cerevisiae BY4743 was plated from a freezer vial onto YPD agar (Teknova, Hollister, Calif.; Cat. #Y1000) and incubated overnight at 30° C. Cells from the YPD plate were inoculated into a 25 ml pre-culture of YPD broth (Teknova, Hollister, Calif.; Cat. #Y5000) with an initial OD600 of 0.06 to 0.08, and this culture was grown for 7 hours in an air shaker at 30° C. An aliquot of the pre-culture was inoculated into 200 ml of YPD broth with an initial OD600 of 0.06 to 0.08, and this culture was incubated with aeration at 30° C. for approximately 17 hours. The optical density of the culture was determined, the culture was centrifuged and the cells were resuspended in fresh YPD broth to yield an OD600 of 8. […] Time of addition of cells was referred to as 0 hours. At various times, samples (1.5 ml) were withdrawn and centrifuged at 10,000 rpm for 2 minutes in a microfuge (Sorvall Biofuge pico). […] YSI, Inc., Yellow Springs, Ohio). Glucose consumption rates in the presence of isobutanol were also determined when the cell concentration was 18 gdcw/L or 24 gdcw/L. Cells from the YPD plate were inoculated into a 25 ml pre-culture of YPD broth (Teknova, Hollister, Calif. Cat. #Y5000) with an initial OD600 of 0.06 to 0.08, and this culture was grown for 7 hours in an air shaker at 30° C. […] The optical density of the culture was determined, the culture was centrifuged and the cells were resuspended in fresh YPD broth to yield an OD600 of 38 (18 gdcw/L). […] The experiment was repeated except that the starting OD600 was 49.1 (24 gdcw/L). […] The results for BY4743 are graphed in FIG. 4.

Data set [2] can be described thus: Alcohol concentration of cultures after 24 hours by HPLC. Format: physicochemical. The following applies: Example 2 cultures, 30° C. Here is the method: Saccharomyces cerevisiae BY4743 (ATCC 201390) was plated from a freezer vial onto YPD agar (Teknova, Hollister, Calif.; Cat. #Y1000) and incubated overnight at 30° C. Cells from the YPD plate were inoculated into a 25 ml pre-culture of YPD broth (Teknova; Cat. #Y5000) with an initial OD600 of 0.06 to 0.08. The pre-culture was grown for 7 hours in an aerobic shaker at 30° C. An aliquot of the pre-culture was inoculated into 200 ml of YPD broth, with an initial OD600 of 0.06 to 0.08, and this culture was incubated with aeration at 30° C. for approximately 17 hours. The optical density of the culture was measured, the culture was centrifuged and the cells were resuspended to yield an OD600 of 5 in fresh YPD broth. This is referred to as a high cell density (HCD) culture. […] This is referred to as a low the cell density (LCD) culture. These cultures were incubated at 30° C. with shaking for 30 minutes for an acclimation period. At the end of the 30 minute acclimation period, the OD600 was measured. 5 ml of low or high cell density culture was dispensed to 15 ml conical tubes which contained different concentrations of the alcohol to be tested. […] All samples were filtered with Acrodisc CR PTFE 0.2 μm filters (Pall Life Sciences, Port Washington, N.Y.) and analyzed using a Shodex SH1011 column (8 mm ID×300 mm length; Showa Denko America, Inc., New York, N.Y.) and a Shodex SH-G as a guard column. […]

For data set [3], the system named is Issatchenkia orientalis PNY0660. Kind of data set: Glucose utilization rate in high cell density culture in corn test medium. Format: cell-based. The following applies: for Glucose utilization rate: 30 C., 0 h to 6 h, 2.7 gdcw/L, corn test medium. Here is the method:
Strain Issatchenkia orientalis PNY0660, was derived from ATCC 20381 strain that was previously referred to as Candida acidothermophilium. Strain PNY0660 was plated from a freezer vial onto YPD agar (Teknova, Hollister, Calif.; Cat. #Y1000) and incubated overnight at 30° C. Cells from the YPD plate were inoculated into a 50 ml pre-culture of YPD broth (Teknova, Hollister, Calif.; Cat. #Y5000) with an initial OD600 of 0.06 to 0.08, and this culture was grown for 5 hours in an air shaker at 30° C. An aliquot of the pre-culture was inoculated into 200 ml of YPD broth with an initial OD600 of 0.6, and this culture was incubated with aeration at 30° C. for approximately 17 hours. The optical density of the culture was determined, the culture was centrifuged, and the sugar consumption rate was determined in corn test medium. Corn test medium contained 0.2% casamino acids and 2% glucose and 100 mM MES buffer pH 5.25 and per liter contained (i) salts: ammonium sulfate 5.0 g, potassium phosphate monobasic 2.8 g, and magnesium sulfate heptahydrate 0.5 g, (ii) vitamins: biotin (D−) 0.40 mg, Ca D(+) panthotenate 8.00 mg, myo-inositol 200.00 mg, pyridoxol hydrochloride 8.00 mg, p-aminobenzoic acid 1.60 mg, riboflavin 1.60 mg, folic acid 0.02 mg, niacin 30.0 mg, and thiamine 30 mg; and (iii) trace elements: EDTA (Titriplex 1117) 99.38 mg, zinc sulphate heptahydrate 29.81 mg, manganese chloride dehydrate 5.57 mg, cobalt(II)chloride hexahydrate 1.99 mg, copper(II)sulphate pentahydrate 1.99 mg, Di-sodium molybdenum dehydrate 2.65 mg, calcium chloride dehydrate 29.81 mg, iron sulphate heptahydrate 19.88 mg, and boric acid.
20 ml cultures (2.7 gdcw/L) in corn test medium were transferred to flasks that contained 0.0%, 0.5%, 1.0%, 1.5%, 1.75% or 2.0% isobutanol. Time of addition of cells was referred to as 0 hours. At various times, samples (1.5 ml) were withdrawn and centrifuged at 10,000 rpm for 2 minutes in a microfuge (Sorvall Biofuge pico). The supernatant was filtered through a 0.2 μm filter (Pall Life Sciences, Port Washington, N.Y.) Pall GHP Acrodisc 13 mm Syringe Filter with 0.2 μm GHP Membrane), the filtrate was diluted ten-fold, and the glucose concentration was determined using a YSI Glucose Analyzer (YSI 2700 Select; YSI, Inc., Yellow Springs, Ohio).

The mark [4] stands for this setting: 1.5% isobutanol, 3.8 and 24 gdcw/L cultures.

In the case of `CC(C)CO` [Isobutanol, isobutanol], the “calculated rate of glucose utilization” value in data set [1] (1% isobutanol, high cell density cultures) is “at least 1.4 gram per gdcw per hour”. Besides, the glucose consumption rate result in data set [1] (setting [4]) is on record as “about 1.1 g/gdcw/h”. Moreover, in data set [1] (setting [4]), the “glucose consumption rate, % of the control rate” value is “approximately 50%”. Also, the “rate of glucose utilization” value in data set [1] (1.5% isobutanol, 3.8 gdcw/L and 24 gdcw/L cultures) is listed as “at least 1 gram per gdcw per hour”; in data set [1] (2% isobutanol, high cell density cultures) it was “at least 0.5 gram per gdcw per hour”; in data set [1] (2.5% isobutanol, high cell density cultures), “at least 0.4 gram per gdcw per hour”; in data set [1] (3% isobutanol, high cell density cultures), “at least 0.2 gram per gdcw per hour”. Also, in data set [2], the “alcohol lost during the incubation period” value is recorded as less than 0.01%. Further, the Glucose utilization rate in data set [3] (5.0 g/L isobutanol) came out at 2.4 g/gdcw/h; in data set [3] (10.0 g/L isobutanol), 2.4 g/gdcw/h; in data set [3] (15.0 g/L isobutanol), 1.4 g/gdcw/h; in data set [3] (17.5 g/L isobutanol), 0.9 g/gdcw/h; in data set [3] (20.0 g/L isobutanol), 0.7 g/gdcw/h. Further, the sugar consumption rate in data set [3] (I. orientalis strains, 20 g/l of isobutanol) amounted to 0.7 g/gdw/h.

Values taken from patent US20120149080A1, “YEAST PRODUCTION CULTURE FOR THE PRODUCTION OF BUTANOL” (Butamax(TM) Advanced Biofuels LLC, priority 2010, published 2012).
